Measurements from patent publication US5550139A, “Serine protease inhibitors” (The Wichita State University, priority 1994, dated 1996).

Legend:
cathepsin G (Cath G) = target: T1, cathepsin G (Cath G) (Homo sapiens, UniProt P08311); assay: Inactivation of human leukocyte cathepsin G (kobs/[I]); assay type: biochemical; settings: for kinact/KI: pH 7.5
T1 construct: purchased Athens Research and Technology, Athens, Ga
T1 sequence (P08311 21-244 limits assumed): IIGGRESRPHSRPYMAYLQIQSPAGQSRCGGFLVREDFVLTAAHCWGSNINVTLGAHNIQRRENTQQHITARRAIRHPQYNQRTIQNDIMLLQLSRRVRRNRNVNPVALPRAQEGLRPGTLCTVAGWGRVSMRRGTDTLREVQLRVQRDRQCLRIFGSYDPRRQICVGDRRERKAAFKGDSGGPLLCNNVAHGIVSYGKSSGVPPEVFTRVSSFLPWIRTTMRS
Method: Human leukocyte cathepsin G (1.33 uM) is incubated with compound 8 (133 uM) (a) or compound 10 (13.3 uM) (b) in 0.1M HEPES buffer, pH 7.5, and 10% DMSO. Aliquots were withdrawn at different time intervals and assayed for enzymatic activity using methoxysuccinyl Ala-Ala-Pro-Phe p-nitroanilide.
Human leukocyte cathepsin G (1.48 μM was incubated with inhibitor 5A (1.48 μM in 0.1M HEPES buffer, pH 7.5, and 1% DMSO. Aliquots were withdrawn at different time intervals and assayed for enzymatic activity using methoxysuccinyl Ala-Ala-Pro-Phe p-nitroanilide.
(§1) An in vitro assay can be used to screen compounds of the invention for the ability to reduce or inhibit serine proteinase activity. The human leukocyte elastase (HLE), cathepsin G (Cath G), and proteinase-3 assays have each been described (Groutas et al., J. Med. Chem. 32:1607-1611, 1989; Groutas et al., Arch. Biochem. Biophys. 294:144-146, 1992; Kao et al., J. Clin. Invest. 82:1963-1973, 1988, each incorporated by reference herein). The pseudo first-order inactivation rate constants (kobs) were obtained from plots of ln(vt /vo) vs t, and expressed in terms of the apparent second-order inactivation rate constant, kobs /[I] M^-1 s^-1 (Tables 1-7). Tables 1-7 disclose the activity of preferred compounds of the invention as inhibitors of HLE and Cath G. Table 7 discloses the activity of Compounds 4A (C) and 3E (D) as inhibitors of Proteinase-3 activity. Compounds (A) and (B) have been disclosed previously (Groutas et al., Bioorganic and Med. Chem. 1(4):273-277, 1993; Groutas et al., J. Med. Chem. 36:3178, 1993).
(§2) Human leukocyte cathepsin G was obtained from Athens Research and Technology, Athens, Ga. Methoxysuccinyl Ala-Ala-Pro-Val p-nitroanilide and methoxysuccinyl Ala-Ala-Pro-Phe p-nitroanilide were purchased from Sigma Chemicals Co., St. Louis, Mo. Baker-analyzed 60-200 mesh silica gel was used for flash chromatography.

[1] = target: T2, human leukocyte elastase (HLE) (Homo sapiens, UniProt P08246); assay: Inactivation of human leukocyte elastase (kobs/[I]); assay type: biochemical; settings: for HLE % inhibition: Table 1B footnote, [I]/[E] ratio of 200, 10 minute incubation period
T2 construct: purchased Elastin Products Co., Owensville, Mo
T2 sequence (P08246 30-247 limits assumed): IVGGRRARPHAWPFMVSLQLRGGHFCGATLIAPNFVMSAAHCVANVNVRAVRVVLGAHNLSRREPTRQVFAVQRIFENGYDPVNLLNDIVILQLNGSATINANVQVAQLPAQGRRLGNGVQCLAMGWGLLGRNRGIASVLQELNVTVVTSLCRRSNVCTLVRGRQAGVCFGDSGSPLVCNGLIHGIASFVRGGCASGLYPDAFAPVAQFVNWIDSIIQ
Description: as §1
XII. Materials: Human leukocyte elastase was purchased from Elastin Products Co., Owensville, Mo.
as §2

## O=C(CNC(=O)OCc1ccccc1)OCN1C(=O)C(Cc2ccccc2)CS1(=O)=O (stereo not drawn) [Compound 11B]
Cathepsin G (Cath G); Table 3
  kinact/KI: 2680 M⁻¹ s⁻¹
[1]; Table 3
  kinact/KI: 220 M⁻¹ s⁻¹

## O=C1[C@H](Cc2ccccc2)NS(=O)(=O)N1CF [Compound 1A, (S)-4-Benzyl-2-fluoromethyl-3-oxo-1,2,5-thiadiazolidine 1.1-dioxide]
Cathepsin G (Cath G); Table 2
  kinact/KI: 600 M⁻¹ s⁻¹

## O=C1C(Cc2ccccc2)CS(=O)(=O)N1C(CF)Sc1ccccc1 (stereo not drawn) [Compound 7, 4-Benzyl-2-(2-fluoro-1-phenylthioethyl) isothiazolidin-3-one 1,1-dioxide]
Cathepsin G (Cath G); Table 1B
  kinact/KI: 40 M⁻¹ s⁻¹
[1]
  HLE % inhibition: 24%

## O=C(/C=C\Sc1ccccc1)OCN1C(=O)C(Cc2ccccc2)CS1(=O)=O (stereo not drawn) [Compound 6C]
Cathepsin G (Cath G); Table 4
  kinact/KI: 7270 M⁻¹ s⁻¹
[1]; Table 4
  kinact/KI: 170 M⁻¹ s⁻¹

## CC(C)(C)OC(=O)N[C@@H](Cc1ccccc1)C(=O)OCN1C(=O)C(Cc2ccccc2)CS1(=O)=O (stereo partly drawn) [Compound 2B]
Cathepsin G (Cath G); Table 3
  kinact/KI: 10 M⁻¹ s⁻¹
[1]; Table 3
  kinact/KI: 680 M⁻¹ s⁻¹

## CN1[C@@H](Cc2ccccc2)C(=O)N(CF)S1(=O)=O [Compound 2A, (S)-4-Benzyl-2-fluoromethyl-5-methyl-3-oxo-1,2,5-thiadiazolidine 1.1-dioxide]
Cathepsin G (Cath G); Table 2
  kinact/KI: 750 M⁻¹ s⁻¹
[1]; Table 2
  kinact/KI: 1320 M⁻¹ s⁻¹

## O=C1C(Cc2ccccc2)CS(=O)(=O)N1C[S+]([O-])c1ccccc1 (stereo not drawn) [Compound 13D]
Cathepsin G (Cath G); Table 5
  kinact/KI: 590 M⁻¹ s⁻¹

## O=C1C(Cc2ccccc2)CS(=O)(=O)N1CS(=O)(=O)c1ccccc1 (stereo not drawn) [Compound 14D]
Cathepsin G (Cath G); Table 5
  Cath G kobs/[I]: 960 M⁻¹ s⁻¹

## Nc1ccc(O)c(C(=O)OCN2C(=O)C(Cc3ccccc3)CS2(=O)=O)c1 (stereo not drawn) [Compound 5]
Cathepsin G (Cath G); Table 1A
  kinact/KI: 3330 M⁻¹ s⁻¹
[1]; Table 1A
  kinact/KI: 470 M⁻¹ s⁻¹

## O=C1[C@H](Cc2ccccc2)N(C/C=C/c2ccccc2)S(=O)(=O)N1CS(=O)(=O)c1ccccc1 [Compound 15E]
Cathepsin G (Cath G); Table 6
  kinact/KI: 760 M⁻¹ s⁻¹

## CC(C)C[C@H]1C(=O)N(CS(=O)(=O)c2ccccc2)S(=O)(=O)N1CC(=O)OC(C)(C)C [Compound 5E]
[1]; Table 6
  kinact/KI: 2020 M⁻¹ s⁻¹

## O=C1[C@H](Cc2ccccc2)N(S(=O)(=O)c2ccccc2)S(=O)(=O)N1CS(=O)(=O)c1ccccc1 [Compound 1E]
Cathepsin G (Cath G); Table 6
  kinact/KI: 830 M⁻¹ s⁻¹

## CC(C(=O)OCN1C(=O)C(Cc2ccccc2)CS1(=O)=O)c1cccc(C(=O)c2ccccc2)c1 (stereo not drawn) [Compound 3]
Cathepsin G (Cath G); Table 1A
  kinact/KI: 290 M⁻¹ s⁻¹
[1]; Table 1A
  kinact/KI: 210 M⁻¹ s⁻¹

## O=C1[C@H](Cc2ccccc2)NS(=O)(=O)N1CCl [Compound 8E]
Cathepsin G (Cath G); Table 6
  kinact/KI: 30 M⁻¹ s⁻¹

## C[C@@H](NC(=O)OCc1ccccc1)C(=O)OCN1C(=O)C(Cc2ccccc2)CS1(=O)=O (stereo partly drawn) [Compound 9B]
Cathepsin G (Cath G); Table 3
  kinact/KI: 1820 M⁻¹ s⁻¹
[1]; Table 3
  kinact/KI: 300 M⁻¹ s⁻¹

## O=C(CN1[C@@H](Cc2ccccc2)C(=O)N(CF)S1(=O)=O)OCc1ccccc1 [Compound 5A, (S) -Benzyl-5(benzyloxycarbonylmethyl)-2-fluoromethyl-3-oxo-1,2,5-thiadiazolidine 1.1-dioxide]
Cathepsin G (Cath G); FIG. 6, Cath G 1.48 μM, inhibitor 1.48 μM, 0.1M HEPES pH 7.5, 1% DMSO
  time-dependent loss of serine protease activity: time-dependent loss of serine protease activity
[1]; Table 2
  kinact/KI: 810 M⁻¹ s⁻¹

## CC(C)(C)OC(=O)CN1[C@@H](Cc2ccccc2)C(=O)N(CS(=O)(=O)c2ccccc2)S1(=O)=O [Compound 14E]
Cathepsin G (Cath G); Table 6
  kinact/KI: 1130 M⁻¹ s⁻¹

## O=C(C[S+]([O-])c1ccccc1)OCN1C(=O)C(Cc2ccccc2)CS1(=O)=O (stereo not drawn) [Compound 4C]
Cathepsin G (Cath G); Table 4
  kinact/KI: 770 M⁻¹ s⁻¹
[1]; Table 4
  kinact/KI: 320 M⁻¹ s⁻¹

## CC(=O)Oc1ccccc1C(=O)OCN1C(=O)C(Cc2ccccc2)CS1(=O)=O (stereo not drawn) [Compound 4]
Cathepsin G (Cath G); Table 1A
  kinact/KI: 3000 M⁻¹ s⁻¹
[1]; Table 1A
  kinact/KI: 830 M⁻¹ s⁻¹

## O=C(CCc1ccccc1)OCN1C(=O)C(Cc2ccccc2)CS1(=O)=O (stereo not drawn) [Compound 2C]
Cathepsin G (Cath G); Table 4
  kinact/KI: 640 M⁻¹ s⁻¹
[1]; Table 4
  kinact/KI: 680 M⁻¹ s⁻¹

## CC(C)C[C@H]1C(=O)N(CS(=O)(=O)c2ccccc2)S(=O)(=O)N1CC(=O)OCc1ccccc1 [Compound 4E]
[1]; Table 6
  kinact/KI: 1710 M⁻¹ s⁻¹

## C=C(N1C(=O)C(Cc2ccccc2)CS1(=O)=O)S(=O)(=O)c1ccccc1 (stereo not drawn) [Compound 9, 4-Benzyl-2-(1-phenylsulfonylvinyl)isothiazolidin-3-one 1,1-dioxide]
Cathepsin G (Cath G); Table 1B
  kinact/KI: 340 M⁻¹ s⁻¹
[1]
  HLE % inhibition: 20%

## O=C(CSc1ccccc1)OCN1C(=O)C(Cc2ccccc2)CS1(=O)=O (stereo not drawn) [Compound 3C]
Cathepsin G (Cath G); Table 4
  kinact/KI: 3340 M⁻¹ s⁻¹
[1]; Table 4
  kinact/KI: 1020 M⁻¹ s⁻¹

## O=C1C(Cc2ccccc2)CS(=O)(=O)N1CCl (stereo not drawn) [Compound 2D]
Cathepsin G (Cath G); Table 5
  kinact/KI: 2040 M⁻¹ s⁻¹
[1]; Table 5
  kinact/KI: 670 M⁻¹ s⁻¹

## CC(C)(C)OC(=O)N1CCC[C@H]1C(=O)OCN1C(=O)C(Cc2ccccc2)CS1(=O)=O (stereo partly drawn) [Compound 6B]
Cathepsin G (Cath G); Table 3
  kinact/KI: 590 M⁻¹ s⁻¹
[1]; Table 3
  kinact/KI: 170 M⁻¹ s⁻¹

## O=C(C=CS(=O)(=O)c1ccccc1)OCN1C(=O)C(Cc2ccccc2)CS1(=O)=O (stereo not drawn) [Compound 8C]
Cathepsin G (Cath G); Table 4
  kinact/KI: 2770 M⁻¹ s⁻¹
[1]; Table 4
  kinact/KI: 380 M⁻¹ s⁻¹

## O=C(Cc1ccccc1Nc1c(Cl)cccc1Cl)OCN1C(=O)C(Cc2ccccc2)CS1(=O)=O (stereo not drawn) [Compound 2]
Cathepsin G (Cath G); Table 1A
  kinact/KI: 80 M⁻¹ s⁻¹
[1]; Table 1A
  kinact/KI: 30 M⁻¹ s⁻¹

## CCCCN1[C@@H](Cc2ccccc2)C(=O)N(CS(=O)(=O)c2ccccc2)S1(=O)=O [Compound 12E]
Cathepsin G (Cath G); Table 6
  kinact/KI: 320 M⁻¹ s⁻¹

## CC(C)C[C@H]1C(=O)N(CS(=O)(=O)c2ccccc2)S(=O)(=O)N1Cc1ccccc1 [Compound 17E]
Cathepsin G (Cath G); Table 6
  kinact/KI: 440 M⁻¹ s⁻¹

## O=C(N[C@@H](Cc1ccccc1)C(=O)OCN1C(=O)C(Cc2ccccc2)CS1(=O)=O)OCc1ccccc1 (stereo partly drawn) [Compound 1B]
Cathepsin G (Cath G); Table 3
  kinact/KI: 20 M⁻¹ s⁻¹
[1]; Table 3
  kinact/KI: 110 M⁻¹ s⁻¹

## O=C1C(Cc2ccccc2)CS(=O)(=O)N1CF (stereo not drawn) [Compound 1D, 4-benzyl-2-(fluoromethyl)isothiazolidin-3-one 1,1 dioxide]
Cathepsin G (Cath G); Table 5
  kinact/KI: 2700 M⁻¹ s⁻¹
[1]; Table 5
  kinact/KI: 160 M⁻¹ s⁻¹

## O=C(CS(=O)(=O)c1ccccc1)OCN1C(=O)C(Cc2ccccc2)CS1(=O)=O (stereo not drawn) [Compound 5C]
Cathepsin G (Cath G); Table 4
  kinact/KI: 1050 M⁻¹ s⁻¹
[1]; Table 4
  kinact/KI: 340 M⁻¹ s⁻¹

## C[C@H](NC(=O)OCc1ccccc1)C(=O)OCN1C(=O)C(Cc2ccccc2)CS1(=O)=O (stereo partly drawn) [Compound 8B]
Cathepsin G (Cath G); Table 3
  kinact/KI: 2770 M⁻¹ s⁻¹
[1]; Table 3
  kinact/KI: 50 M⁻¹ s⁻¹

## O=C1[C@H](Cc2ccccc2)N(Cc2ccccc2)S(=O)(=O)N1CF [Compound 3A, (S)-4.5-Dibenzyl-2-fluoromethyl-3-oxo-1,2,5-thiadiazolidine 1.1-dioxide]
[1]; Table 2
  kinact/KI: 930 M⁻¹ s⁻¹

## O=C(/C=C/Sc1ccccc1)OCN1C(=O)C(Cc2ccccc2)CS1(=O)=O (stereo not drawn) [Compound 7C]
Cathepsin G (Cath G); Table 4
  kinact/KI: 5520 M⁻¹ s⁻¹
[1]; Table 4
  kinact/KI: 240 M⁻¹ s⁻¹

## O=C(/C=C/c1ccccc1)OCN1C(=O)C(Cc2ccccc2)CS1(=O)=O (stereo not drawn) [Compound 1C]
Cathepsin G (Cath G); Table 4
  kinact/KI: 3220 M⁻¹ s⁻¹
[1]; Table 4
  kinact/KI: 280 M⁻¹ s⁻¹

## CCCCN1[C@@H](CC(C)C)C(=O)N(CS(=O)(=O)c2ccccc2)S1(=O)=O [Compound 16E]
[1]; Table 6
  kinact/KI: 10600 M⁻¹ s⁻¹

## CS(=O)(=O)CN1C(=O)C(Cc2ccccc2)CS1(=O)=O (stereo not drawn) [Compound 15D]
Cathepsin G (Cath G); Table 5
  kinact/KI: 2080 M⁻¹ s⁻¹

## CC(C)C[C@H]1C(=O)N(CS(C)(=O)=O)S(=O)(=O)N1C [Compound 18E]
[1]; Table 6
  kinact/KI: 4590 M⁻¹ s⁻¹

## O=C1[C@H](Cc2ccccc2)NS(=O)(=O)N1CS(=O)(=O)c1ccccc1 [Compound 10E]
Cathepsin G (Cath G); Table 6
  kinact/KI: 30 M⁻¹ s⁻¹

## CC(C)C[C@@H]1NS(=O)(=O)N(CS(=O)(=O)c2ccccc2)C1=O [Compound 2E]
[1]; Table 6
  kinact/KI: 190 M⁻¹ s⁻¹

## CN1[C@@H](Cc2ccccc2)C(=O)N(CS(=O)(=O)c2ccccc2)S1(=O)=O [Compound 11E]
Cathepsin G (Cath G); Table 6
  kinact/KI: 130 M⁻¹ s⁻¹
